Experiment [1] addresses T1, Ephrin type-B receptor 3 (Homo sapiens) (UniProt P54753).
T1 sequence (whole entry): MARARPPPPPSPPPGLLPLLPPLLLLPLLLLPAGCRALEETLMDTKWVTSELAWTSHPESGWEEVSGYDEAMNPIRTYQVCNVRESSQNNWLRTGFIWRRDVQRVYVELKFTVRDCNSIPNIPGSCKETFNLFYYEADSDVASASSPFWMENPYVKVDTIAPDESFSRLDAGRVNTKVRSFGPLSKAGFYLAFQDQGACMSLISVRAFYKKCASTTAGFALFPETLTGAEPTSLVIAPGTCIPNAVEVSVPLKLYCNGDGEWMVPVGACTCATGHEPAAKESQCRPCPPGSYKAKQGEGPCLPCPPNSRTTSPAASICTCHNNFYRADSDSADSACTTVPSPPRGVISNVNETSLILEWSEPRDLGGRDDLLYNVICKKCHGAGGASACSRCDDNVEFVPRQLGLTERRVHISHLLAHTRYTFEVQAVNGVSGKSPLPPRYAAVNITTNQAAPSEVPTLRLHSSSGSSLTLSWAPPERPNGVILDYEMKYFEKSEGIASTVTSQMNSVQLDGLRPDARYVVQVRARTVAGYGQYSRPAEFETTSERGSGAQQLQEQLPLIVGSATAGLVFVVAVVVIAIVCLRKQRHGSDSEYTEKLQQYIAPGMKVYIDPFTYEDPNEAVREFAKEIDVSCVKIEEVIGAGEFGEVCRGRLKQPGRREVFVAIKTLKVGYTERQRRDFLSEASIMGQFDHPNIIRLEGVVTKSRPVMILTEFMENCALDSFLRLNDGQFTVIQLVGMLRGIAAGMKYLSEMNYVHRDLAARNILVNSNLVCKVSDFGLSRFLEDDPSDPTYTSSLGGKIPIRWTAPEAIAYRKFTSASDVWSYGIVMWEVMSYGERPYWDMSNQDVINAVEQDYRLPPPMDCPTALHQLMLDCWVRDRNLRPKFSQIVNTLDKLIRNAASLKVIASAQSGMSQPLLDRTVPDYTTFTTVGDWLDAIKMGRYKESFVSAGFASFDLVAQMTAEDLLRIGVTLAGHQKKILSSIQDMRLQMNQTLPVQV
The experiment can be described thus: Inhibition of human EPHB3 at 500 nM by HotSpot assay relative to control.

In experiment [2] the target is Cyclin-dependent kinase 5/CDK5 activator 1 (Homo sapiens) (UniProt Q00535+Q15078). As to the kind of experiment: Inhibition of human CDK5/p25 at 500 nM by HotSpot assay relative to control. In kind it is protein-complex assay.
The target in experiment [3] is PAS domain-containing serine/threonine-protein kinase (Homo sapiens) (UniProt Q96RG2). As to the kind of experiment: Inhibition of human PASK at 500 nM by HotSpot assay relative to control.
Experiment [4] concerns the target T2, Serine/threonine-protein kinase TAO1 (Homo sapiens) (UniProt Q7L7X3).
T2 sequence (whole entry): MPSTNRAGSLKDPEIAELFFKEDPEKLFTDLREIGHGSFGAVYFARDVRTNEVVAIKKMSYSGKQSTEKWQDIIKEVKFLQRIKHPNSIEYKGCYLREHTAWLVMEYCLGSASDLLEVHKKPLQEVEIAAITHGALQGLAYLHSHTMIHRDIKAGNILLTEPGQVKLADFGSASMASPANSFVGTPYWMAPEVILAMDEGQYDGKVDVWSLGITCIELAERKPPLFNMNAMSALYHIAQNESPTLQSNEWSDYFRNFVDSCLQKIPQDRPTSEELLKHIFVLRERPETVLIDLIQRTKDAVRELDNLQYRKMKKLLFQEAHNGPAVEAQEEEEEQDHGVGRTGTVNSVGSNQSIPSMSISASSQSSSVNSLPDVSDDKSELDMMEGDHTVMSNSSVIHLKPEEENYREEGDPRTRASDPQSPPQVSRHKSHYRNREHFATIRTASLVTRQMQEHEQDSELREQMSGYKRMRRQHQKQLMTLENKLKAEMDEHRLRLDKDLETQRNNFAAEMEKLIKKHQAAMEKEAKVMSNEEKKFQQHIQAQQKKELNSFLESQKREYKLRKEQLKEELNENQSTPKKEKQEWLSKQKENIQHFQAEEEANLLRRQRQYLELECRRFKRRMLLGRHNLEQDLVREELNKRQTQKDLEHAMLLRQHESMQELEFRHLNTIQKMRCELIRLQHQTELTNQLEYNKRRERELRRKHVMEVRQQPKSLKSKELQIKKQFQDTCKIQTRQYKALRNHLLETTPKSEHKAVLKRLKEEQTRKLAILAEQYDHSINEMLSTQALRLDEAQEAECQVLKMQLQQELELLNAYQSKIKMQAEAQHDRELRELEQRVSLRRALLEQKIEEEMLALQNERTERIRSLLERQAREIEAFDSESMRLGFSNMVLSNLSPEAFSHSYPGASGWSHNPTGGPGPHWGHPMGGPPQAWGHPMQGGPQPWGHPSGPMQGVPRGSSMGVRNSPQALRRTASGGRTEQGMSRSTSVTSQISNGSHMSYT
As to the kind of experiment: Inhibition of human TAOK1 at 500 nM by HotSpot assay relative to control.

This note sets out measurements from ChEMBL document CHEMBL5653615 (J Biol Chem, 2013).

Structures are written as SMILES.

Sequence of PAS domain-containing serine/threonine-protein kinase (Homo sapiens) (Q96RG2 whole entry, the tested form may be a part): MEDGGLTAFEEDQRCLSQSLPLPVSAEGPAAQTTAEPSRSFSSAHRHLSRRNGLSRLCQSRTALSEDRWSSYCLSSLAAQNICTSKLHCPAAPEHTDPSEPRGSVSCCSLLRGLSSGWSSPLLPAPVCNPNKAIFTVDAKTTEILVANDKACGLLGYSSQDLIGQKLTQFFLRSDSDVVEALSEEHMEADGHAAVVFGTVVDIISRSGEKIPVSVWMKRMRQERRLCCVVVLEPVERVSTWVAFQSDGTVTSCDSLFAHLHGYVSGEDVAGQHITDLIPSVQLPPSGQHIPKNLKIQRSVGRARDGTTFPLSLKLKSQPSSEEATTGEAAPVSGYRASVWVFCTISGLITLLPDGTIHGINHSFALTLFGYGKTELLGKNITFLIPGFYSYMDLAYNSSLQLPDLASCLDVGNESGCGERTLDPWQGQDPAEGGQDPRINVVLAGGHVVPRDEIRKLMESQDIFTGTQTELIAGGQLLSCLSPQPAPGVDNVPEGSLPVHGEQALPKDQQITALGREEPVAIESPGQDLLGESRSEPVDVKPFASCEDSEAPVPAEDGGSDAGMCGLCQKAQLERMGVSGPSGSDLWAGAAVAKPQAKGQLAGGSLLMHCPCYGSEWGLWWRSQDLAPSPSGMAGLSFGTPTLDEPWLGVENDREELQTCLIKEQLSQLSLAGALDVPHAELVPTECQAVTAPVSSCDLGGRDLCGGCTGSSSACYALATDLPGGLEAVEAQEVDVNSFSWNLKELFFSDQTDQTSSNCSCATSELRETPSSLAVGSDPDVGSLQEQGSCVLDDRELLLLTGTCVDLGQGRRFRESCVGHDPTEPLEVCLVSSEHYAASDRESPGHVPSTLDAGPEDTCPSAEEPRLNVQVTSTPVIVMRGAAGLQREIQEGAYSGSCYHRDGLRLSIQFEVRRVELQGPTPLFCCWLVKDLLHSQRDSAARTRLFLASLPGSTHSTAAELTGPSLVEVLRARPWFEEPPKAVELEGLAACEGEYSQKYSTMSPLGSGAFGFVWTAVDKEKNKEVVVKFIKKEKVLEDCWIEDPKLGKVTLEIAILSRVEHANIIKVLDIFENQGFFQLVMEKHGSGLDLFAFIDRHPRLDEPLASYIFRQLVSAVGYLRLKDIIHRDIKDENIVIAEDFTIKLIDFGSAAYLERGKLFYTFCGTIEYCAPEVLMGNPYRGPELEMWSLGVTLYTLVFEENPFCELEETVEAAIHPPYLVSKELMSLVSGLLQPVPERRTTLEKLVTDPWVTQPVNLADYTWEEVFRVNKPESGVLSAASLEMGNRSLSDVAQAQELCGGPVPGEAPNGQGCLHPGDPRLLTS
Sequence of Cyclin-dependent kinase 5/CDK5 activator 1 (Homo sapiens) (Q00535 whole entry, the tested form may be a part): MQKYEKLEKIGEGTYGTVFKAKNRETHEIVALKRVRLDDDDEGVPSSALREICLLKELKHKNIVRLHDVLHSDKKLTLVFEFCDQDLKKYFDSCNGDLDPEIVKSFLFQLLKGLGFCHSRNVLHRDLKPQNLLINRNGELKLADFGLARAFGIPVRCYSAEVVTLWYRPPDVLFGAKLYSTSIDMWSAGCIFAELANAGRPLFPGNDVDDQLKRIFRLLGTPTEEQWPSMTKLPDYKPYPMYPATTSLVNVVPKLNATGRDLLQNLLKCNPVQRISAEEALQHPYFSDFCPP
Sequence of Cyclin-dependent kinase 5/CDK5 activator 1 (Homo sapiens) (Q15078 99-307 partner limits assumed): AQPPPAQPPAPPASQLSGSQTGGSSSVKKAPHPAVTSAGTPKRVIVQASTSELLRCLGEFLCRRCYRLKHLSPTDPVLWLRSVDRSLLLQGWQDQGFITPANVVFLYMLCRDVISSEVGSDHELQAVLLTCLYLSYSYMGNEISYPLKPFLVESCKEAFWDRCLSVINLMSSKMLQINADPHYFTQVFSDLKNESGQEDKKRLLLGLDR

Regarding `Nc1n[nH]c2nnc(-c3c(-c4ccccc4)nn4ccccc34)cc12`, the inhibition (usually the change of the read-out against control, counted positive when it falls) in experiment [1] was 3.21%; in experiment [2] it was -0.57%; in experiment [3], 0.21%; in experiment [4], 4.2%.

Turning to `Oc1n[nH]c2nnc(-c3c(-c4ccccc4)nn4ccccc34)cc12`, the inhibition in experiment [1] is -1.08%; in experiment [2], 1.29%; in experiment [3] it was -0.26%; in experiment [4] it was 1.61%.
